Laboratory results: ChEMBL document CHEMBL6078726, “Synthesis and in vitro evaluation of novel compounds and discovery of a promising iodine-125 radioligand for purinergic P2X7 receptor (P2X7R)” (Bioorg Med Chem, 2025)
Activity calls are given as the source filed them. The calls are words filed in the database; no cut-off is given here.

What was measured:
[1] = target: T1, P2X purinoceptor 7 (Homo sapiens) (UniProt Q99572); experiment: Binding affinity to human P2X7 receptor expressed in HEK293 cell membrane assessed as inhibition of [125I]-4-(1-(1-(4-iodobenzoyl)piperidin-4-yl)-1H-imidazol-5-yl)phenyl isoquinoline-5-sulfonate binding to receptor at 1 uM incubated for 60 mins by high throughput screening relative to control; format: cell membranes
T1 sequence (whole entry): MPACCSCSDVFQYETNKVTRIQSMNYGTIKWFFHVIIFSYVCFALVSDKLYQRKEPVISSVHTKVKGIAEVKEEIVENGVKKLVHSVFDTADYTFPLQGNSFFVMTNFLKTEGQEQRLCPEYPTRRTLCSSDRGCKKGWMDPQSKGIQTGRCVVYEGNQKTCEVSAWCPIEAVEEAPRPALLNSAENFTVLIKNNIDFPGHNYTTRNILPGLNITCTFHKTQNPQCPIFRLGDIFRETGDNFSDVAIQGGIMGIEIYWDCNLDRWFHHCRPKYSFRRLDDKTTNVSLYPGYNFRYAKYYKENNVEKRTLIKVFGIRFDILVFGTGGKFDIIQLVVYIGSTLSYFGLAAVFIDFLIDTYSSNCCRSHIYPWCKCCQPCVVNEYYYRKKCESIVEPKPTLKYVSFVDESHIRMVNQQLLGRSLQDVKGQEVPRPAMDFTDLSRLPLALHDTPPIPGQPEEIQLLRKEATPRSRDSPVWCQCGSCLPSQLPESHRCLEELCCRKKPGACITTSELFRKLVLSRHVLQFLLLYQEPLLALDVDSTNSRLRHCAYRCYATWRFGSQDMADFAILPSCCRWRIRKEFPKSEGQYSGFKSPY

P2X purinoceptor 7 [2] = target: T2, P2X purinoceptor 7 (Homo sapiens, UniProt Q99572); experiment: Antagonist activity at human P2X7 receptor expressed in HEK293 cells assessed as inhibition of BzATP-induced increase in fluorescence preincubated for 30 mins followed by BzATP addition and measured after 15 mins by YO-PRO-1 based inverted fluorescence microscopic analysis; format: cell-based
T2 sequence (Q99572 whole entry): T1 sequence (whole entry)

P2X purinoceptor 7 [3] = target: T2, P2X purinoceptor 7; experiment: Binding affinity to human P2X7 receptor expressed in HEK293 cell membrane incubated for 60 mins in presence of [125I]-4-(1-(1-(4-iodobenzoyl)piperidin-4-yl)-1H-imidazol-5-yl)phenyl isoquinoline-5-sulfonate by competitive binding assay; format: cell membranes
[4] = target: T1, P2X purinoceptor 7 (Homo sapiens); experiment: Antagonist activity at human P2X7 receptor expressed in HEK293 cells assessed as inhibition of BzATP-induced inward current at 300 nM preincubated with compound for 3 mins followed by BzATP addition and measured after 25 mins of washout by whole-cell voltage clamp method; format: cell-based; details: filed as antagonist, time 28.0 min
[5] = target: T1, P2X purinoceptor 7 (Homo sapiens); experiment: Antagonist activity at human P2X7 receptor expressed in HEK293 cells assessed as inhibition of BzATP-induced inward current at 300 nM preincubated with compound for 3 mins followed by BzATP addition by whole-cell voltage clamp method; format: cell-based; design: scale not given: the % may be the effect or the level left; details: filed as antagonist
[6] = target: T3, P2X purinoceptor 2 (Rattus norvegicus) (UniProt P49653); experiment: Antagonist activity at rat P2X2 receptor expressed in HEK293 cells assessed as inhibition of BzATP-induced inward current at 1 uM by whole-cell voltage clamp method; format: cell-based
T3 sequence (whole entry): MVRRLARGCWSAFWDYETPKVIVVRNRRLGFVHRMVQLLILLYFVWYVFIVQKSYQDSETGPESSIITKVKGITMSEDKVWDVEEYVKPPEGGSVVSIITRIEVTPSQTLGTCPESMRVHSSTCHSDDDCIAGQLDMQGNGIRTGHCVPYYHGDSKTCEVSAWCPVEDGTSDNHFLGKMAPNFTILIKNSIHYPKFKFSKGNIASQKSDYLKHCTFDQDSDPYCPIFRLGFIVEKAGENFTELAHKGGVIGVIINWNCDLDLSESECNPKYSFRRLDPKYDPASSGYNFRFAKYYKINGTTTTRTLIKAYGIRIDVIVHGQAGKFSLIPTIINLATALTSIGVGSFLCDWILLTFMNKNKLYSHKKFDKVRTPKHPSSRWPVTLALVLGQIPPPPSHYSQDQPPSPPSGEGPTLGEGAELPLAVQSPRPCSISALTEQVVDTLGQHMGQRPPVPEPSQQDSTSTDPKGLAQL

[7] = target: T1, P2X purinoceptor 7 (Homo sapiens); experiment: Antagonist activity at human P2X7 receptor expressed in HEK293 cells assessed as inhibition of BzATP-induced increase in fluorescence at 1 uM preincubated for 30 mins followed by BzATP addition and measured after 15 mins by YO-PRO-1 based inverted fluorescence microscopic analysis; format: cell-based; details: filed as antagonist, time 45.0 min

Row | Compound | inhibition [1] [%] | IC50 (P2X purinoceptor 7 [2]) [µM] | other results
1 | O=C(NCc1cccc(C(F)(F)F)c1Cl)[C@@H]1CCC(=O)N1C/C=C/I | 45 | – | –
2 | O=C(NCc1cccc2cnccc12)c1cc(O)ccc1Cl | < 35 | > 1 | –
3 | O=C(c1ccc([N+](=O)[O-])cc1)N1CCC(n2cncc2-c2ccc(OS(=O)(=O)c3cccc4cnccc34)cc2)CC1 | – | – | inhibition ([1]; filed as antagonist): 74%; IC50 (P2X purinoceptor 7 [3]): 0.00791 µM
4 | O=C(c1ccc(Br)cc1)N1CCC(n2cncc2-c2ccc(OS(=O)(=O)c3cccc4cnccc34)cc2)CC1 | – | – | inhibition ([1]; filed as antagonist): 71%; IC50 (P2X purinoceptor 7 [3]): 0.00716 µM
5 | O=C(NCc1cccc2cnccc12)c1cc(OCCF)ccc1Cl | < 35 | > 1 | –
6 | COc1ccc(Cl)c(C(=O)NCc2cccc3cnccc23)c1 | < 35 | > 1 | –
7 | NCC(=O)Nc1ccc(Cl)c(C(=O)OCc2cccc3cnccc23)c1 | < 35 | > 1 | –
8 | O=C(c1ccc(I)cc1)N1CCC(n2cncc2-c2ccc(OS(=O)(=O)c3cccc4cnccc34)cc2)CC1 | – | 0.00025 | Activity [4]: Active; inhibition ([1]; filed as antagonist): 76%; Activity [5]: 100%; Activity [6]: inactive; Activity [7]: Active
9 | COc1ccc(C(=O)Nc2ccc(Cl)c(C(=O)OCc3cccc4cnccc34)c2)nc1 | < 35 | > 1 | –
10 | O=C(OCc1cccc2cnccc12)c1cc(NC(=O)[C@H]2CCCN2)ccc1Cl | < 35 | > 1 | –
11 | O=C1CNC(C(=O)Nc2ccc(Cl)c(C(=O)NCc3cccc4cnccc34)c2)CN1 (stereo unspecified) | < 35 | > 1 | –
12 | COc1ccc(Cl)c(C(=O)NNC(=O)c2cccc3ncccc23)c1 | < 35 | > 1 | –
13 | CNCC(=O)Nc1ccc(Cl)c(C(=O)NCc2cccc3cnccc23)c1 | < 35 | > 1 | –
14 | COc1ccc(Cl)c(C(=O)NNC(=O)[C@H]2CC[C@H](C(F)(F)F)CC2)c1 | < 35 | > 1 | –
